# Patent publication US7297489B2, “Mutations in and genomic structure of HERG—a long QT syndrome gene” (University of Utah Research Foundation, priority 1998, dated 2007)
# Like-named read-outs stand apart in the source and are kept apart here.
# Experiments:
# HERG [1] = molecular target: T1, HERG (Homo sapiens, UniProt Q12809); assay: HERG current in Xenopus oocytes injected with HERG cRNA, two-microelectrode voltage clamp; conditions: for effect on current magnitude or voltage-dependence of channel activation: 1 mM within 30 min of application
# T1 sequence (Q12809 whole entry): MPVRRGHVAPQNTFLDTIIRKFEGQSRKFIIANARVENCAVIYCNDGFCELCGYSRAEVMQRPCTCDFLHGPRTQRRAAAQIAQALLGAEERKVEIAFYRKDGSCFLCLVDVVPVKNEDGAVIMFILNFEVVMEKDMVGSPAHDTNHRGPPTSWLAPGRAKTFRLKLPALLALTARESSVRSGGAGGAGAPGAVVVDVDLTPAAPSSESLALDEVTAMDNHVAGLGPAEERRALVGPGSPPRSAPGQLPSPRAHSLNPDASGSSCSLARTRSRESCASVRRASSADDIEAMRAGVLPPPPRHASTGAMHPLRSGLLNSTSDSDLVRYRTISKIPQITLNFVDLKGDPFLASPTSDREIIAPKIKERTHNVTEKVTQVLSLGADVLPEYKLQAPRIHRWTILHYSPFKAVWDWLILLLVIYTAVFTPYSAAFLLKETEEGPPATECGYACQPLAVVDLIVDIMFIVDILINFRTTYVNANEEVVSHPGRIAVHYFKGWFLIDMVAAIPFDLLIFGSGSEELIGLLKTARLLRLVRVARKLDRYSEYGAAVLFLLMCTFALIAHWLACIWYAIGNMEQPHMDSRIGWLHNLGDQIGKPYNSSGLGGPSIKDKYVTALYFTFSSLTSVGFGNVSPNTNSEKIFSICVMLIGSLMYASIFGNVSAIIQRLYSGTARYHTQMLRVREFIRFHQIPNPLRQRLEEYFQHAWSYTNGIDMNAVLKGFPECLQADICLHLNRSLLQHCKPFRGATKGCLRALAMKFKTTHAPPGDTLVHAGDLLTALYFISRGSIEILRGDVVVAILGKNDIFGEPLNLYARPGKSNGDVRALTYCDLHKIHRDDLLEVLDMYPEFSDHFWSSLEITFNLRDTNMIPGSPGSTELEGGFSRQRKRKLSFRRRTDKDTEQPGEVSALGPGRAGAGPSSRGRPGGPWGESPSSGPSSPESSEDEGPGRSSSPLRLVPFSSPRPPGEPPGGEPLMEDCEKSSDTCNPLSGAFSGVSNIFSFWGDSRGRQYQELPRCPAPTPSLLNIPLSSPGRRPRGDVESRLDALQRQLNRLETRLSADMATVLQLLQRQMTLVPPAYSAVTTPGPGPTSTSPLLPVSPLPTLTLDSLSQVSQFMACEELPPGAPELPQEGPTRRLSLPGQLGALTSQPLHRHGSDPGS
# Description: (§1) The characteristics of the expressed channel were studied in oocytes 2-6 days after cRNA injection using standard two-microelectrode voltage clamp techniques. HERG current was activated in response to test potentials >−50 mV. […] Deactivation of current (tail current) was assessed after return of the membrane to the holding potential of −70 mV. […] The voltage-dependence of channel activation was assessed by plotting the relative amplitude of tail currents as a function of test potential (FIG. 1D).
# (§2) Xenopus frogs were anesthetized by immersion in 0.2% tricaine for 15-30 min. Ovarian lobes were digested with 2 mg/ml Type 1A collagenase (Sigma) in Ca^2+-free ND96 solution for 1.5 hours to remove follicle cells. […] Barth's solution contained (in mM): 88 NaCl, 1 KCl, 0.4 CaCl2, 0.33 Ca(NO3)2, 1 MgSO4, 2.4 NaHCO3, 10 HEPES; pH 7.4.
# (§3) Unless indicated, oocytes were bathed in ND96 solution. This solution contained (in mM): 96 NaCl, 2 KCl, 1 MgCl2, 1.8 CaCl2, 5 HEPES; pH 7.6. In some experiments, KCl was varied by equimolar substitution with NaCl. Currents were recorded at room temperature (21-23° C.) using standard two-microelectrode voltage clamp techniques. Glass microelectrodes were filled with 3 M KCl and their tips broken to obtain tip resistances of 1-3 MΩ for the voltage-recording electrode and 0.6-1 MΩ for the current-passing electrode. Oocytes were voltage-clamped with a Dagan TEV-200 amplifier. Voltage commands were generated using pClamp software (ver. 6, Axon Instruments), a 486DX2 personal computer and a TL-1 D/A interface (Axon Instruments). Current signals were digitally sampled at a rate equal to 2-4 times the low-pass cut-off frequency (−3 db) of a 4-pole Bessel filter. Unless indicated, currents were corrected for leak and capacitance using standard, on-line P/3 leak subtraction. The oocyte membrane potential was held at −70 mV between test pulses, applied at a rate of 1-3 pulses/min. Data analyses, including exponential fitting of current traces, were performed using pCLAMP. […] Data are expressed as the mean±SEM (n=number of oocytes).
# IKr of cardiac myocytes = conditions: cited from earlier work
# HERG [2] = molecular target: T1, HERG
# Description: as §1, §2, §3
# IKr (mouse AT-1 cells) = molecular target: T2, IKr (mouse AT-1 cells) (Mus musculus, UniProt O35219); conditions: cited from earlier work
# T2 sequence (O35219 1-1162): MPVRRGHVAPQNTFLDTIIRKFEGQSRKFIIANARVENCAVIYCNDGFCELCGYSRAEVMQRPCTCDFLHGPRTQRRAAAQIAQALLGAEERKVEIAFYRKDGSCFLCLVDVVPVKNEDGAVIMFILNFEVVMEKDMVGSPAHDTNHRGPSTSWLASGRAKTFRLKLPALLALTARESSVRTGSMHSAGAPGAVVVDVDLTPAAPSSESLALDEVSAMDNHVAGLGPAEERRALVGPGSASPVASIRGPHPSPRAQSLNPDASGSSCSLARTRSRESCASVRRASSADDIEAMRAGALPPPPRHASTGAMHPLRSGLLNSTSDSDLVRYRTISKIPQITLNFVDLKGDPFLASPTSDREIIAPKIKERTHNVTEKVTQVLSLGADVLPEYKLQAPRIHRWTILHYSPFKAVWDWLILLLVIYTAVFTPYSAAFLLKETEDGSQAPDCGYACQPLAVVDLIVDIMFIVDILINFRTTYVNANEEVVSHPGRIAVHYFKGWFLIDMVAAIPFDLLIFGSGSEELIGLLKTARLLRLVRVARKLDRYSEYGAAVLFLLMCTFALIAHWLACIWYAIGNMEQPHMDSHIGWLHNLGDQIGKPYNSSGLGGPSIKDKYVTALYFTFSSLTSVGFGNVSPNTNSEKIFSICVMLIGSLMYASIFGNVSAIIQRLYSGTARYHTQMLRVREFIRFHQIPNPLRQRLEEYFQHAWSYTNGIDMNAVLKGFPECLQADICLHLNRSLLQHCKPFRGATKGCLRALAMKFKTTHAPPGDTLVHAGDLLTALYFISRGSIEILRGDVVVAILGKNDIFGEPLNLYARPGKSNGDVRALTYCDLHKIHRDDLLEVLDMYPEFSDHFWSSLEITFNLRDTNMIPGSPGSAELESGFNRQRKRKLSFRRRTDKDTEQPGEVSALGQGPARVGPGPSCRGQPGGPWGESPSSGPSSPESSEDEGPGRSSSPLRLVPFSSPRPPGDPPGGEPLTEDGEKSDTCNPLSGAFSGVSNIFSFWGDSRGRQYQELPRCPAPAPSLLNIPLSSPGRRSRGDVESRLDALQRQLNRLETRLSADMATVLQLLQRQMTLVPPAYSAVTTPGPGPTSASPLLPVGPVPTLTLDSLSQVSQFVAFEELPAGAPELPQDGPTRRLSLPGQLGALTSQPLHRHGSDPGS
# IKr (guinea pig heart) = molecular target: T3, IKr (guinea pig heart) (Cavia porcellus, UniProt O08703); conditions: read-out: IC50 (blockers, methanesulfonanilides); cited from earlier work
# T3 construct: host or cells: guinea pig cardiac myocytes (endogenous current)
# T3 sequence (O08703 1-1294): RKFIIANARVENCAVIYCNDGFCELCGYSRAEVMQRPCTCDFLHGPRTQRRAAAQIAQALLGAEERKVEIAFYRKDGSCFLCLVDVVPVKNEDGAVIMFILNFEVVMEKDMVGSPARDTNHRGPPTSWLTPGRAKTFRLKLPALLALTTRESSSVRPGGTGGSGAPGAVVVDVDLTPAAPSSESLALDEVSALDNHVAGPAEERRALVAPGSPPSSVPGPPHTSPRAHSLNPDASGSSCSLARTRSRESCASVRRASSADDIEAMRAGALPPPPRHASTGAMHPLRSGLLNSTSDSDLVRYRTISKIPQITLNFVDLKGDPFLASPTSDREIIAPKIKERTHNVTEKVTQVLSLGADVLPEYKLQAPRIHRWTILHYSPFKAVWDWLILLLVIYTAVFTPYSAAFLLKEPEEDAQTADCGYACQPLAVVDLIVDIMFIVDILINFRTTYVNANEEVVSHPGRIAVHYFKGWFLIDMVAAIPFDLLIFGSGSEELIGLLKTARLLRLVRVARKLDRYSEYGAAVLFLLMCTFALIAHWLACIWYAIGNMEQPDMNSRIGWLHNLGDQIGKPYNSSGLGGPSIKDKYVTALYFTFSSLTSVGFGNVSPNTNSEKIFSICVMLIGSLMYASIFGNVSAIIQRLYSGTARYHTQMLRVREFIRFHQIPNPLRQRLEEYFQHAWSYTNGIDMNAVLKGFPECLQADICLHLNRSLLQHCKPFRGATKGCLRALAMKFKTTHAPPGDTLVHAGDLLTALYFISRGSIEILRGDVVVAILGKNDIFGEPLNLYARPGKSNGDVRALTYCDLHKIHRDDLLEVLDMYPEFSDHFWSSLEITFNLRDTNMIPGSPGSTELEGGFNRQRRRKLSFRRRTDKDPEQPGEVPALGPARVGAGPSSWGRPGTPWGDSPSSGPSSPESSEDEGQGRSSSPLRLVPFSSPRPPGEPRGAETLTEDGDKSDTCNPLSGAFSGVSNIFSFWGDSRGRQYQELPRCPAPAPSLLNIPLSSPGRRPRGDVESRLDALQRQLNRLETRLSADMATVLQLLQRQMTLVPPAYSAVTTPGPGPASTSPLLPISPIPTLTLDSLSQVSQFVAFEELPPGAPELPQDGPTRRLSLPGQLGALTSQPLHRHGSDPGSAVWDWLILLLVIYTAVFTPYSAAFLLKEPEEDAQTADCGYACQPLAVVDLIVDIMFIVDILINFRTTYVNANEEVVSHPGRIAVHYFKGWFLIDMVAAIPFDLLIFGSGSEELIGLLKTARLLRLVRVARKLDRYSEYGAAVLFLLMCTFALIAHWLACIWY
# rcKATP-1 = molecular target: T4, rcKATP-1 (Rattus norvegicus, UniProt P48548); conditions: expressed in HEK293 cells; cited from earlier work
# T4 sequence (P48548 1-419): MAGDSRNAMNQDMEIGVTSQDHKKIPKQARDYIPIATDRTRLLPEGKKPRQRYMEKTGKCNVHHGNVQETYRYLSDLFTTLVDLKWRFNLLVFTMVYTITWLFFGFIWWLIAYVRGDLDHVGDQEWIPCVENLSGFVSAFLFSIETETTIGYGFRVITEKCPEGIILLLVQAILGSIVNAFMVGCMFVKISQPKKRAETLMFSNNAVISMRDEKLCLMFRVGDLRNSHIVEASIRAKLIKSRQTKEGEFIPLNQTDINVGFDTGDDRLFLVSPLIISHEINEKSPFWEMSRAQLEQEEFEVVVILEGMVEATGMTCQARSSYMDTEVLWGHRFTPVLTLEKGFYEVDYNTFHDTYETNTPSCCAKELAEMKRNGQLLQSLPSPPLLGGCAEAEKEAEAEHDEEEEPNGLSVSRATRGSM
compound,measurement,setting,value
Nc1ncnc2c1nc(Br)n2[C@@H]1O[C@@H]2COP(=O)(O)O[C@H]2[C@H]1O [8-Br-cAMP],activation of HERG,HERG [1],not activated
same,effect on current magnitude or voltage-dependence of channel activation,HERG [1],Neither compound had a significant effect
Nc1nc2c(nc(Br)n2[C@@H]2O[C@@H]3COP(=O)(O)O[C@H]3[C@H]2O)c(=O)[nH]1 [8-Br-cGMP],effect on current magnitude or voltage-dependence of channel activation,HERG [1],Neither compound had a significant effect
"[Co+2] [Co^2+, cobalt]",block of HERG current,"HERG [1]; 2 mM Co^2+, n=2",52%
same,block of IKr,IKr of cardiac myocytes; 2 mM cobalt,blocked
[K+] [K^+],increase of HERG current,HERG [1]; [K^+]e 5 mM versus 2 mM,40%
"[La+3] [La^3+, lanthanum]","Blockers La^3+, Co^2+",HERG [2],+
same,half-point of activation (isochronal activation curve),HERG [2],+23 mV
same,"Blockers La^3+, Co^2+",IKr (mouse AT-1 cells),+
same,block of IKr,IKr of cardiac myocytes; 10-100 μM lanthanum,blocked
CS(=O)(=O)Nc1ccc2c(c1)[C@H](O)CC1(CCN([C@@H]3CCc4cc(C#N)ccc4C3)CC1)O2 [MK-499],IC50,IKr (guinea pig heart),44 nM
COc1ccc(Cl)cc1C(=O)NCCc1ccc(S(=O)(=O)NC(=O)NC2CCCCC2)cc1 [glibenclamide],block of the channel,rcKATP-1,not blocked
CC(C)NCC(O)c1ccc(O)c(O)c1 (stereo not shown) [isoproterenol],increase of IKr,IKr of cardiac myocytes; cardiac myocytes,does not increase
